Experimental data reported in patent EP1247803A2, “Indolinone compounds suitable for modulation of protein kinases” (Sugen, Inc., priority 1996, dated 1998).

What was measured:
EGFR = target: T1, EGFR (Homo sapiens, UniProt P00533); assay: EGFR ELISA assay (in vitro kinase activity, EGFR captured from A431 cell lysate); format: biochemical; parameters: concentration or dose not given beside the values
T1 construct: Add 7 ug A431 cell lysate per well (EGFR source); endogenous in cells; host or cells: A431
T1 sequence (P00533 25-1210): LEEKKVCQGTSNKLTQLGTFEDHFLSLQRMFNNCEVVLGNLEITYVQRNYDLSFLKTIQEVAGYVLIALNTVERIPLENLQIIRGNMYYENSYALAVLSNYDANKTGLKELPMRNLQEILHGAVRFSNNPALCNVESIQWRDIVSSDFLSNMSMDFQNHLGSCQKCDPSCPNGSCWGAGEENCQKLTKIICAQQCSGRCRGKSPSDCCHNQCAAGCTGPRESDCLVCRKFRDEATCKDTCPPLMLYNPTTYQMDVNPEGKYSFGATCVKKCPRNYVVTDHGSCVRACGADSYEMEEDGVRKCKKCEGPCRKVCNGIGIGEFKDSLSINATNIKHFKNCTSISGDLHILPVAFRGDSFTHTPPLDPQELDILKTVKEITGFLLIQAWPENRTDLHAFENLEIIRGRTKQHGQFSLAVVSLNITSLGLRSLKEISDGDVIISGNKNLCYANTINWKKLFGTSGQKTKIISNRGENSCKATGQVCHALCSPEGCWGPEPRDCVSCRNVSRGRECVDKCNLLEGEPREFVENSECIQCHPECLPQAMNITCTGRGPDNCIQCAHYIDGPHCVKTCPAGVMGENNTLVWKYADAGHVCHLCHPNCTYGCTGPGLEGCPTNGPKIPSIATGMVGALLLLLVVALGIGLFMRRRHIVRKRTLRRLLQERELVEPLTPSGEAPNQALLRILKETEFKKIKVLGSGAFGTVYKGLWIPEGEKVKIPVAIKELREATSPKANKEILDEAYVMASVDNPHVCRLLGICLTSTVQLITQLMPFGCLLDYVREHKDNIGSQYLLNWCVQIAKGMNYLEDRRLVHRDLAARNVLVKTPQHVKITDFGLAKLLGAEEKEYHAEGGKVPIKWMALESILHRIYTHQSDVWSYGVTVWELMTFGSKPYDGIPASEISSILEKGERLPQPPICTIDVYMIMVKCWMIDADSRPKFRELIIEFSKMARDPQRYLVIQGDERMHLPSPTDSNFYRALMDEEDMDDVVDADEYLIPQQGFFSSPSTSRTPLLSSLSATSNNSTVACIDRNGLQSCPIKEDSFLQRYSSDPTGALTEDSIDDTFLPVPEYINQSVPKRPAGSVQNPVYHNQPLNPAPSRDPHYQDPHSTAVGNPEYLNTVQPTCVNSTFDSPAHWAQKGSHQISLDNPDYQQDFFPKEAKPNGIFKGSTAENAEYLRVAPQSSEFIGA
In short: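 EGFR from A431 lysate was captured on anti-EGFR antibody-coated plates and preincubated with compounds for 30 min. Autophosphorylation ran 5 min with 3 uM ATP and 5 mM MnCl2 (final), stopped with 20 mM EDTA. Phosphotyrosine was detected by anti-pTyr ELISA with ABTS/H2O2, read at 410 nm.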

MET = MET biochemical kinase assay; parameters: species or system human; concentration or dose not given beside the values
In short: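 In this format, tyrosine phosphorylation of plate-captured human MET is followed in vitro after compound addition in ATP/divalent-cation buffer, detected by anti-phosphotyrosine-HRP with TMB substrate.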

| SMILES | Biochem EGFR %Inhibition (EGFR) [%] | Met Kinase % Inhibition (MET) [%] |
| --- | --- | --- |
| COc1cc(C)cc(O)c1C=C1C(=O)Nc2ccc(CCCl)cc21 [10725/G06] | -19.9 | 35.8 |
| Cc1cc(C=C2C(=O)Nc3ccc(CCCl)cc32)[nH]n1 [10725/G05] | 68.7 | 15.6 |
| O=C1Nc2c(Br)cc(Br)cc2C1=Cc1ccc(F)cc1 [10717/A05] | 16.6 | 35.6 |
| CCOc1ccccc1C=C1C(=O)Nc2ccc(CCCl)cc21 [10717/G02] | 32.3 | 30.7 |
| COc1ccc(Br)c(C=C2C(=O)Nc3ccc(S(=O)(=O)N4CCOCC4)cc32)c1O [10725/F03] | -36.2 | 63.2 |
| COc1cccc(O)c1C=C1C(=O)Nc2ccc(S(=O)(=O)N3CCOCC3)cc21 [10717/F10] | -26.4 | 54.6 |
| O=C1Nc2ccc(S(=O)(=O)N3CCOCC3)cc2C1=Cc1ccc[nH]1 [10717/F09] | 1.8 | 41.4 |
| COc1cc(C)cc(O)c1C=C1C(=O)Nc2ccc(S(=O)(=O)N3CCOCC3)cc21 [10725/F06] | -37.8 | 41.8 |
| O=C1Nc2ccc(CCCl)cc2C1=Cc1sccc1Br [10725/G02] | -20.5 | 30.8 |
| CNS(=O)(=O)c1ccc2c(c1)C(=Cc1cc(C)n[nH]1)C(=O)N2 [10725/D05] | -19.7 | 24.5 |
| COC(=O)Cc1c(Cl)[nH]c(C=C2C(=O)Nc3ccc(S(=O)(=O)Nc4ccc(C(F)(F)F)cc4)cc32)c1C(=O)OC [10725/E09] | 31.4 | 22.4 |
| Cc1cc(C=C2C(=O)Nc3c(Br)cc(Br)cc32)cc(C(C)(C)C)c1O [10726/A04] | 40.8 | 85.7 |
| COc1ccc(C=C2C(=O)Nc3ccc(I)cc32)cc1 [10726/B11] | 39.4 | 64.4 |
| Cc1cc(C=C2C(=O)Nc3ccc(Br)c(C)c32)[nH]n1 [10725/C05] | -21.9 | 31.7 |
| O=C1Nc2ccc(F)cc2C1=C1C(=O)Nc2c(Br)cc(Br)cc21 [10726/A08] | -28.4 | 63.1 |
| COc1ccc(Br)c(C=C2C(=O)Nc3ccc(CCCl)cc32)c1O [10725/G03] | -2.5 | 58.6 |
| CCc1ccc(C=C2C(=O)Nc3ccc(I)cc32)s1 [10726/B10] | 40.8 | 58.5 |
| CNS(=O)(=O)c1ccc2c(c1)C(=Cc1c(Br)cnn1-c1ccc(Cl)cc1)C(=O)N2 [10725/D10] | 11.7 | 27.8 |
| CNS(=O)(=O)c1ccc2c(c1)C(=Cc1c(Br)ccc(OC)c1O)C(=O)N2 [10725/D03] | -2.5 | 72.9 |
| O=CN1CCN(c2ccc(C=C3C(=O)Nc4ccc(S(=O)(=O)N5CCOCC5)cc43)cc2)CC1 [10725/F07] | 16.4 | 67.8 |
| COC(=O)Cc1c(Cl)[nH]c(C=C2C(=O)Nc3ccc(CCCl)cc32)c1C(=O)OC [10725/G09] | 6.5 | 4.7 |
